Data on 11 compounds can be found in patent US10689354B2, “Aminoazole derivative” (Teijin Pharma Limited, priority 2015, dated 2020).

Molecules are shown by their SMILES.

The target of assay [1] is T1, human androgen receptor (Homo sapiens, UniProt P10275).
T1 construct: expressed in transfected cells; host or cells: HEK293
T1 sequence (P10275 1-920): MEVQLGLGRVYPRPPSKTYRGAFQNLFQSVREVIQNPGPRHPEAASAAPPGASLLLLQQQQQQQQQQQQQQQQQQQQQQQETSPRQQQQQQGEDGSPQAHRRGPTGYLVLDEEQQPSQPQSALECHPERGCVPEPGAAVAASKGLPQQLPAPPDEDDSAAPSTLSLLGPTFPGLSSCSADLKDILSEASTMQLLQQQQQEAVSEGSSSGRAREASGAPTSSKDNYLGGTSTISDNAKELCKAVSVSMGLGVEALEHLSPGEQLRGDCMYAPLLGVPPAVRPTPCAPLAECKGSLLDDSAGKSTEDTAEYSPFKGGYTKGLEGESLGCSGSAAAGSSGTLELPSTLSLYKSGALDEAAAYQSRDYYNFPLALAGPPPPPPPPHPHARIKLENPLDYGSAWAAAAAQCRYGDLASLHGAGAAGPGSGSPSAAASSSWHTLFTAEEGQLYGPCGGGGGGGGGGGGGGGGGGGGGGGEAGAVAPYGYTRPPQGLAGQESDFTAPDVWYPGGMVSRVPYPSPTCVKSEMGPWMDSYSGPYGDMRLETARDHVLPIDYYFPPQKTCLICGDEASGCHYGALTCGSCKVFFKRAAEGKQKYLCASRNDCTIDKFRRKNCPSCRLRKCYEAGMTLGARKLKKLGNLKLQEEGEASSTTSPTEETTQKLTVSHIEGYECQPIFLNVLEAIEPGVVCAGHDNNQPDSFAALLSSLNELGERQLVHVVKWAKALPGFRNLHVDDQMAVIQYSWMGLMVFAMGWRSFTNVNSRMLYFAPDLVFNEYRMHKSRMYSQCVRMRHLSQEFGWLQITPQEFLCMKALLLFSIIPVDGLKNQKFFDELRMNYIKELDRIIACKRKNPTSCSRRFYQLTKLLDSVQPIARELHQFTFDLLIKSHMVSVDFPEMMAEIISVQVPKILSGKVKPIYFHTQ
The experiment in a line: Reporter assay of an androgen receptor responsive sequence (luciferase, transiently transfected HEK293 cells). Particulars: 24 hours incubation, relative to activity of 100 nM DHT, read-out: AR transcriptive activity (pEC50) (converted). The format is cell-based. An outline of the steps: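 HEK293 cells transiently transfected for 3 h with ARE-firefly luciferase, full-length human AR and TK-Renilla plasmids, then exposed to compound for 24 h at 37 °C in 5% charcoal-treated FBS/DMEM. Dual-Glo luminescence read; pEC50 from 4-parameter fit relative to 100 nM DHT.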

The target in assay [2] is T2, androgen receptor (AR-LBD) (Rattus norvegicus, UniProt P15207).
T2 construct: 5 μL of 2×AR-LBD/Fluoromone AL Red Complex contained in the kit; purchased Invitrogen
T2 sequence (P15207 651-882 limits assumed): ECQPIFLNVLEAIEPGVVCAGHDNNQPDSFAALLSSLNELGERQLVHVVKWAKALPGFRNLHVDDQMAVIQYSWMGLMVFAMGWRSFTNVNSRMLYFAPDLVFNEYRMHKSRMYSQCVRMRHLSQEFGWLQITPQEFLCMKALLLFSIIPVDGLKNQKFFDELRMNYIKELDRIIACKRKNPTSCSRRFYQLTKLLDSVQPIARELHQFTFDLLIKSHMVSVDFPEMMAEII
The experiment in a line: Evaluation of androgen receptor affinity (PolarScreen Androgen Receptor Competitor Assay Kit, Red; fluorescence polarization). Particulars: 22° C. for 5 hours, relative to binding rate of 1 μM DHT, read-out: AR affinity (pEC50) (converted). An outline of the steps:
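Fluorescence polarization read-out after 5 h at 22° C of compound with a red-fluorophore-labelled AR-LBD complex. Displacement is scaled against 1 μM DHT, and the log reciprocal of the concentration reaching half that effect gives pEC50 via four-parameter curve fitting.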

On to `COc1c(F)ccc(CN(c2ccc(C#N)cc2)c2nc(C(=O)NS(C)(=O)=O)c(C)s2)c1F` [Compound 111, 2-[4-cyano-N-[(2,4-difluoro-3-methoxy-phenyl)methyl]anilino]-5-methyl-N-methylsulfonyl-thiazole-4-carboxamide], for which the EC50 was 63.1 nM in assay [1] and 50.1 nM in assay [2].
Regarding `COc1ccc(CN(c2ccc(C#N)cc2)c2nc(C(=O)NS(C)(=O)=O)c(C)s2)c(F)c1F` [Compound 112, 2-[4-cyano-N-[(2,3-difluoro-4-methoxy-phenyl)methyl]anilino]-5-methyl-N-methylsulfonyl-thiazole-4-carboxamide], the EC50 is 79.4 nM in assay [1] and 31.6 nM in assay [2].
On to `Cc1sc(N(Cc2ccc(SC(F)(F)F)cc2)c2ccc(C#N)cc2)nc1C(=O)NS(C)(=O)=O` [Compound 113, 2-[4-cyano-N-[[4-(trifluoromethylsulfanyl)phenyl]methyl]anilino]-5-methyl-N-methylsulfonyl-thiazole-4-carboxamide], for which the EC50 in assay [1] is 158 nM; in assay [2], 25.1 nM.
The like results for `Cc1sc(N(Cc2ccc3nsnc3c2)c2ccc(C#N)cc2)nc1C(=O)NS(C)(=O)=O` [Compound 114, 2-[N-(2,1,3-benzothiadiazole-5-ylmethyl)-4-cyano-anilino]-5-methyl-N-methylsulfonyl-thiazole-4-carboxamide] were, in that order, 158 nM and 126 nM.
The matching figures for `Cc1ccc(CN(c2ccc(C#N)cc2)c2nc(C(=O)NS(C)(=O)=O)c(C)s2)cc1F` [Compound 115, 2-[4-cyano-N-[(3-fluoro-4-methyl-phenyl)methyl]anilino]-5-methyl-N-methylsulfonyl-thiazole-4-carboxamide]: 31.6 nM and 31.6 nM.
The matching figures for `Cc1sc(N(Cc2ccc(Cl)c(F)c2)c2ccc(C#N)cc2)nc1C(=O)NS(C)(=O)=O` [Compound 116, 2-[N-[(4-chloro-3-fluoro-phenyl)methyl]-4-cyano-anilino]-5-methyl-N-methylsulfonyl-thiazole-4-carboxamide]: 25.1 nM and 31.6 nM.
As to `Cc1sc(N(Cc2ccc(F)c(Cl)c2)c2ccc(C#N)cc2)nc1C(=O)NS(C)(=O)=O` [Compound 117, 2-[N-[(3-chloro-4-fluoro-phenyl)methyl]-4-cyano-anilino]-5-methyl-N-methylsulfonyl-thiazole-4-carboxamide], the EC50 is 63.1 nM in assay [1] and 25.1 nM in assay [2].
The like results for `COc1cc(Cl)ccc1CN(c1ccc(C#N)cc1)c1nc(C(=O)NS(C)(=O)=O)c(C)s1` [Compound 118, 2-[N-[(4-chloro-2-methoxy-phenyl)methyl]-4-cyano-anilino]-5-methyl-N-methylsulfonyl-thiazole-4-carboxamide] were, in that order, 398 nM and 50.1 nM.
The like results for `Cc1sc(N(Cc2ccc(OC(F)(F)F)cc2)c2ccc(C#N)cc2)nc1C(=O)NS(=O)(=O)Cc1cccnc1` [Compound 121, 2-[4-cyano-N-[[4-(trifluoromethoxy)phenyl]methyl]anilino]-5-methyl-N-(3-pyridylmethylsulfonyl)thiazole-4-carboxamide] were, in that order, 50.1 nM and 25.1 nM.
The matching figures for `Cc1sc(N(Cc2ccc(F)cc2)c2ccc(C#N)cc2)nc1C(=O)NS(=O)(=O)Cc1cccnc1` [Compound 122, 2-[4-cyano-N-[(4-fluorophenyl)methyl]anilino]-5-methyl-N-(3-pyridylmethylsulfonyl)thiazole-4-carboxamide]: 20 nM and 25.1 nM.
`Cc1sc(N(Cc2ccc3c(c2)OCCO3)c2ccc(C#N)cc2)nc1C(=O)NS(C)(=O)=O` [Compound 123, 2-[4-cyano-N-(2,3-dihydro-1,4-benzodioxin-6-ylmethyl)anilino]-5-methyl-N-methylsulfonyl-thiazole-4-carboxamide]: the values for the EC50 in assay [1] and in assay [2] were 100 nM and 50.1 nM, respectively.
